Patent US20140377216A1, “ANTICANCER FUSION PROTEIN” (ADAMED SP. Z.O.O., priority 2011, published 2014)

Assays:
Type in all cases: in vivo, Crl:SHO-PrkdcscidHrhr mice
[1] = tested on: human lung cancer A549; experiment: Lung cancer model, Experiment B: A549 xenograft; details: A549, Crl:SHO mice; 20 mg/kg i.v. 6 times every second day; 34 day
Description: (§1) Tumor size was measured using electronic calliper, tumor volume was calculated using the formula: (a^2×b)/2, where a=shorter diagonal of the tumor (mm) and b=longer diagonal of the tumor (mm). Inhibition of tumor growth was calculated using the formula:
(§2) TGI[%](Tumor growth inhibition)=(WT/WC)×100−100%
(§3) wherein WT is the average tumor volume in the treatment group, and WC is the average tumor volume in the control group.
Experiment B. On day 0 Crl:SHO-Prkdc^scidHr^h mice were grafted subcutaneously (s.c.) in the right side with 7×10^6 of A549 cells suspended in 0.1 ml of the mixture HBSS:Matrigel 3:1 using syringe with a needle 0.5×25 mm (Bogmark). On the 17 day of the experiment mice were randomized to obtain the average size of tumors in the group of ˜100-120 mm^3 and assigned to treatment groups. The treatment groups were administered with the preparations of fusion protein of the invention of Ex. 11^a (40 mg/kg), and rhTRAIL114-281 (20 mg/kg) as a comparison against formulation buffer (19 mM NaH2PO4, 81 mM Na2HPO4, 50 mM NaCl, 5 mM glutathione, 0.1 mM ZnCl2, 10% glycerol, pH 7.4) as a control. The preparations were administered intravenously (i.v) 6 times once daily every second day. On the 34 day of the experiment mice were sacrificed by disruption of the spinal cord.

[2] = tested on: human lung cancer NCI-H460-Luc2; experiment: Lung cancer model, Experiment C: NCI-H460-Luc2 xenograft; details: 20 mg/kg i.v. 6 times every second day, 29 day
Description: as §1, §2, §3
On day 0 Crl:SHO-Prkdc^scidHr^hr mice were grafted subcutaneously (s.c.) in the right side with 5×10^6 of NCI-H460-Luc2 cells suspended in 0.1 ml of HBSS buffer using syringe with a needle 0.5×25 mm (Bogmark). On the 11 day of the experiment mice were randomized to obtain the average size of tumors in the group of ˜100-120 mm^3 and assigned to treatment groups. The treatment groups were administered with the preparations of fusion protein of the invention of Ex. 11^a (40 mg/kg and 30 mg/kg), and rhTRAIL114-281 (20 mg/kg) as a comparison against formulation buffer (19 mM NaH2PO4, 81 mM Na2HPO4, 50 mM NaCl, 5 mM glutathione, 0.1 mM ZnCl2, 10% glycerol, pH 7.4) as a control. The preparations were administered intravenously (i.v) 6 times once daily every second day (in case of fusion protein of the invention of Ex. 11^a first administration at a dose 40 mg/kg and subsequent at 30 mg/kg. On the 29 day of the experiment mice were sacrificed by disruption of the spinal cord.

[3] = tested on: multidrug resistant human uterine sarcoma MES-SA/Dx5; experiment: Multidrug resistant uterine sarcoma model: MES-SA/Dx5 xenograft; details: 10 mg/kg i.v. 6 times every second day, 35 day
Description: as §1, §2, §3
On day 0 Crl:SHO-Prkdc^scidHr^hr mice were grafted subcutaneously (s.c.) in the right side with 7×10^6 of MES-SA/Dx5 cells suspended in 0.1 ml of the mixture HBSS:Matrigel 10:1 using syringe with a needle 0.5×25 mm (Bogmark). On the 19 day of the experiment mice were randomized to obtain the average size of tumors in the group of −180 mm^3 and assigned to treatment groups. The treatment groups were administered with the preparation of fusion protein of the invention of Ex. 11^a (30 mg/kg) and rhTRAIL114-281 (10 mg/kg) as a comparison against formulation buffer (19 mM NaH2PO4, 81 mM Na2HPO4, 50 mM NaCl, 5 mM glutathione, 0.1 mM ZnCl2, 10% glycerol, pH 7.4) as a control. Preparations were administered intravenously (i.v.) 6 times once daily every second day. On the 35 day of the experiment mice were sacrificed by disruption of spinal cord.

[4] = tested on: human liver cancer HepG2; experiment: Liver cancer model, Experiment A: HepG2 xenograft; details: 50 mg/kg i.v. six times every second day, 42th day
Description: as §1, §2, §3
On day 0 Crl:SHO-Prkdc^scidHr^hr mice were grafted subcutaneously (s.c.) in the right flank region with 7×10^6 of HepG2 cells suspended in 0.1 ml of the 3:1 mixture HBSS buffer:Matrigel using syringe with a 0.5×25 mm needle (Bogmark). When tumors reached the size of 64-529 mm^3 (day 25), mice were randomized to obtain the average size of tumors in the group of −230 mm^3 and assigned to treatment groups. The treatment groups were administered with the preparations of fusion protein of the invention of Ex. 16^b (80 mg/kg) and rhTRAIL114-281 (50 mg/kg) as a comparison and reference compound 5-FU (5-Fluorouracil, Sigma-Aldrich) (20 mg/kg). The preparations were administered intravenously (i.v.) six times every second day, 5-FU was applied intraperitoneally (i.p.). The control group received formulation buffer.
When the therapeutic group reached the average tumor size of ˜1000 mm^3, mice were sacrificed by cervical dislocation.

[5] = tested on: human liver cancer PLC/PRF/5; experiment: Liver cancer model, Experiment B: PLC/PRF/5 xenograft; details: rhTRAIL 50 mg/kg i.v. six times every second day, 43th day
Description: as §1, §2, §3
On day 0 Crl:SHO-Prkdc^scidHr^hr mice were grafted subcutaneously (s.c.) in the right flank region with 7×10^6 of PLC/PRF/5 cells suspended in 0.1 ml of the 3:1 mixture HBSS buffer:Matrigel using syringe with a 0.5×25 mm needle (Bogmark). When tumors reached the size of 72-536 mm^3 (day 29), mice were randomized to obtain the average size of tumors in the group of ˜205 mm^3 and assigned to treatment groups. The treatment groups were administered with the preparations of fusion protein of the invention of Ex. 16^b (50 mg/kg) and rhTRAIL114-281 (50 mg/kg) as a comparison and reference compound 5-FU (5-Fluorouracil, Sigma-Aldrich) (30 mg/kg). The preparations were administered intravenously (i.v.) six times every second day, except 5-FU, which was applied intraperitoneally (i.p.) in the schedule (q1dx5)×2. The control group received formulation buffer.
When an experimental group reached the average tumor size of ˜1000 mm^3, mice were sacrificed by cervical dislocation.

## rhTRAIL114-281: recombinant human soluble TRAIL, amino acids 114-281 of hTRAIL, used as comparative reference
[1]
  TGI (tumor growth inhibition) relative to the control: 21.8%
[2]
  TGI (tumor growth inhibition) relative to the control: 76%
[3]
  TGI (tumor growth inhibition) relative to the control: 29%
[4]
  TGI (tumor growth inhibition) relative to the control: 23.2%
[5]
  TGI (tumor growth inhibition) relative to the control: 25.2%
